Data from patent US10597388B2, “Pyridazinone herbicides” (FMC CORPORATION, priority 2014, dated 2020).

Tests used:
Assay in all cases: Test C greenhouse herbicide test, pre- and postemergence
Assay type in all cases: in vivo
[1] = tested on: oilseed rape (Brassica napus)
How it was run: (§1)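 Each species was treated both before emergence, in a loam–sand soil mix, and after emergence, as 1- to 4-leaf seedlings in peat-based potting medium. Plants stayed in the greenhouse 13 to 15 d, then were scored from 0 (no effect) to 100 (complete control) relative to controls.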

[2] = tested on: ragweed (common ragweed, Ambrosia elatior)
How it was run: as §1

[3] = tested on: nutsedge, yellow (yellow nutsedge, Cyperus esculentus)
How it was run: as §1

[4] = tested on: soybean (Glycine max)
How it was run: as §1

[5] = tested on: wheat (winter wheat, Triticum aestivum)
How it was run: as §1

[6] = tested on: foxtail, giant (giant foxtail, Setaria faberii)
How it was run: as §1

[7] = tested on: barnyardgrass (Echinochloa crus-galli)
How it was run: as §1

[8] = tested on: waterhemp (common waterhemp, Amaranthus rudis)
How it was run: as §1

[9] = tested on: johnsongrass (Sorghum halepense)
How it was run: as §1

[10] = tested on: lambsquarters (Chenopodium album)
How it was run: as §1

[11] = tested on: crabgrass, large (large crabgrass, Digitaria sanguinalis)
How it was run: as §1

[12] = tested on: galium (catchweed bedstraw, Galium aparine)
How it was run: as §1

[13] = Postemergence, 31 g ai/ha, scale 0 to 100 (0 no effect, 100 complete control)
[14] = Postemergence, 125 g ai/ha, scale 0 to 100, 0 is no effect, 100 is complete control
[15] = Postemergence, 250 g ai/ha, scale 0 to 100, 0 no effect, 100 complete control, 13 to 15 d
[16] = Preemergence, 31 g ai/ha, scale 0 to 100, 0 is no effect, 100 is complete control
[17] = Preemergence, 62 g ai/ha, scale 0 to 100, 0 is no effect, 100 is complete control
[18] = Preemergence, 125 g ai/ha, scale 0 to 100, 0 is no effect, 100 is complete control
[19] = Preemergence, 250 g ai/ha, scale 0 to 100, 0 no effect, 100 complete control
[20] = postemergence, 62 g ai/ha, scale 0 to 100, 0 no effect, 100 complete control

CCCC(=O)Oc1c(C)nn(C)c(=O)c1-c1c(CC)sc2ccc(C)cc12 [Compound 107]
50: Plant response rating, Nutsedge, Yellow [3, 17] | Barnyardgrass plant response rating [7, 20]
80: Plant response rating, Oilseed Rape [1, 14] | Oilseed Rape plant response rating [1, 19] | Plant response rating, Nutsedge, Yellow [3, 13] | Plant response rating, Foxtail, Giant [6, 17] | Plant response rating, Barnyardgrass [7, 18]
5: Wheat plant response rating [5, 19]
35: Plant response rating, Barnyardgrass [7, 13] | Plant response rating, Crabgrass, Large [11, 14]
25: Plant response rating, Oilseed Rape [1, 13]
75: Plant response rating, Ragweed [2, 16] | Plant response rating, Nutsedge, Yellow [3, 14] | Plant response rating, Soybean [4, 16] | Plant response rating, Foxtail, Giant [6, 15] | Plant response rating, Waterhemp [8, 13] | Plant response rating, Waterhemp [8, 16] | Plant response rating, Waterhemp [8, 17] | Plant response rating, Crabgrass, Large [11, 18]
85: Plant response rating, Ragweed [2, 13] | Plant response rating, Ragweed [2, 18] | Plant response rating, Nutsedge, Yellow [3, 15] | Plant response rating, Foxtail, Giant [6, 18] | Plant response rating, Lambsquarters [10, 13] | Crabgrass, Large plant response rating [11, 19]
20: Plant response rating, Oilseed Rape [1, 18] | Plant response rating, Soybean [4, 14] | Plant response rating, Johnsongrass [9, 15] | Johnsongrass plant response rating [9, 19] | Crabgrass, Large plant response rating [11, 20]
60: Plant response rating, Foxtail, Giant [6, 16]
45: Plant response rating, Oilseed Rape [1, 15] | Plant response rating, Barnyardgrass [7, 17]
100: Ragweed plant response rating [2, 19] | Plant response rating, Lambsquarters [10, 17] | Plant response rating, Galium [12, 14]
98: Plant response rating, Ragweed [2, 14] | Plant response rating, Ragweed [2, 15] | Foxtail, Giant plant response rating [6, 19] | Barnyardgrass plant response rating [7, 19] | Waterhemp plant response rating [8, 19] | Plant response rating, Lambsquarters [10, 15] | Plant response rating, Galium [12, 15]
90: Plant response rating, Ragweed [2, 17] | Nutsedge, Yellow plant response rating [3, 19] | Plant response rating, Barnyardgrass [7, 15] | Plant response rating, Waterhemp [8, 15] | Plant response rating, Lambsquarters [10, 14] | Plant response rating, Lambsquarters [10, 16] | Plant response rating, Galium [12, 16] | Plant response rating, Galium [12, 17] | Plant response rating, Galium [12, 18]
40: Plant response rating, Barnyardgrass [7, 14]
15: Soybean plant response rating [4, 19] | Plant response rating, Foxtail, Giant [6, 13] | Plant response rating, Barnyardgrass [7, 16] | Plant response rating, Crabgrass, Large [11, 13]
65: Plant response rating, Crabgrass, Large [11, 15]
10: Plant response rating, Soybean [4, 15] | Plant response rating, Johnsongrass [9, 18]
0: Plant response rating, Oilseed Rape [1, 16] | Plant response rating, Oilseed Rape [1, 17] | Plant response rating, Soybean [4, 13] | Plant response rating, Soybean [4, 17] | Plant response rating, Soybean [4, 18] | Plant response rating, Wheat [5, 13] | Plant response rating, Wheat [5, 14] | Plant response rating, Wheat [5, 15] | Plant response rating, Wheat [5, 16] | Plant response rating, Wheat [5, 17] | Plant response rating, Wheat [5, 18] | Plant response rating, Johnsongrass [9, 13] | Plant response rating, Johnsongrass [9, 14] | Plant response rating, Johnsongrass [9, 16] | Plant response rating, Johnsongrass [9, 17]
70: Plant response rating, Nutsedge, Yellow [3, 18] | Plant response rating, Foxtail, Giant [6, 14]
30: Plant response rating, Nutsedge, Yellow [3, 16] | Plant response rating, Crabgrass, Large [11, 16] | Plant response rating, Crabgrass, Large [11, 17]
95: Plant response rating, Waterhemp [8, 14] | Plant response rating, Waterhemp [8, 18] | Plant response rating, Lambsquarters [10, 18] | Lambsquarters plant response rating [10, 19] | Plant response rating, Galium [12, 13] | Galium plant response rating [12, 19]

CC(=O)Oc1c(C)nn(C)c(=O)c1-c1c(C)sc2ccc(Cl)cc12 [Compound 108]
98: Plant response rating, Ragweed [2, 14] | Plant response rating, Ragweed [2, 18] | Ragweed plant response rating [2, 19] | Plant response rating, Waterhemp [8, 15] | Plant response rating, Lambsquarters [10, 14] | Plant response rating, Lambsquarters [10, 15]
25: Plant response rating, Crabgrass, Large [11, 14]
10: Plant response rating, Soybean [4, 13] | Plant response rating, Wheat [5, 15] | Plant response rating, Wheat [5, 17] | Wheat plant response rating [5, 19] | Crabgrass, Large plant response rating [11, 20]
40: Plant response rating, Barnyardgrass [7, 14] | Plant response rating, Crabgrass, Large [11, 15]
35: Plant response rating, Nutsedge, Yellow [3, 16] | Plant response rating, Barnyardgrass [7, 17] | Plant response rating, Barnyardgrass [7, 18] | Barnyardgrass plant response rating [7, 20]
60: Plant response rating, Barnyardgrass [7, 15]
65: Plant response rating, Foxtail, Giant [6, 16] | Plant response rating, Crabgrass, Large [11, 18]
75: Plant response rating, Ragweed [2, 16] | Plant response rating, Nutsedge, Yellow [3, 15] | Plant response rating, Foxtail, Giant [6, 14] | Plant response rating, Waterhemp [8, 16]
5: Plant response rating, Oilseed Rape [1, 16] | Plant response rating, Wheat [5, 14] | Plant response rating, Barnyardgrass [7, 16] | Plant response rating, Johnsongrass [9, 14] | Plant response rating, Johnsongrass [9, 15] | Plant response rating, Johnsongrass [9, 17] | Plant response rating, Crabgrass, Large [11, 13] | Plant response rating, Crabgrass, Large [11, 16]
100: Plant response rating, Ragweed [2, 15] | Plant response rating, Waterhemp [8, 18] | Waterhemp plant response rating [8, 19] | Lambsquarters plant response rating [10, 19]
95: Plant response rating, Oilseed Rape [1, 15] | Foxtail, Giant plant response rating [6, 19] | Plant response rating, Galium [12, 14] | Plant response rating, Galium [12, 15] | Plant response rating, Galium [12, 18] | Galium plant response rating [12, 19]
80: Plant response rating, Oilseed Rape [1, 13] | Plant response rating, Nutsedge, Yellow [3, 17] | Nutsedge, Yellow plant response rating [3, 19]
90: Plant response rating, Oilseed Rape [1, 17] | Plant response rating, Oilseed Rape [1, 18] | Oilseed Rape plant response rating [1, 19] | Plant response rating, Ragweed [2, 13] | Plant response rating, Ragweed [2, 17] | Plant response rating, Waterhemp [8, 14] | Plant response rating, Waterhemp [8, 17] | Plant response rating, Lambsquarters [10, 13] | Plant response rating, Lambsquarters [10, 17] | Plant response rating, Lambsquarters [10, 18] | Plant response rating, Galium [12, 13] | Plant response rating, Galium [12, 16] | Plant response rating, Galium [12, 17]
0: Plant response rating, Soybean [4, 16] | Plant response rating, Soybean [4, 17] | Plant response rating, Soybean [4, 18] | Soybean plant response rating [4, 19] | Plant response rating, Wheat [5, 13] | Plant response rating, Wheat [5, 16] | Plant response rating, Johnsongrass [9, 13] | Plant response rating, Johnsongrass [9, 16]
20: Plant response rating, Barnyardgrass [7, 13] | Johnsongrass plant response rating [9, 19]
85: Plant response rating, Oilseed Rape [1, 14] | Plant response rating, Foxtail, Giant [6, 15] | Plant response rating, Foxtail, Giant [6, 17] | Plant response rating, Foxtail, Giant [6, 18] | Barnyardgrass plant response rating [7, 19] | Plant response rating, Waterhemp [8, 13] | Plant response rating, Lambsquarters [10, 16]
15: Plant response rating, Soybean [4, 14] | Plant response rating, Soybean [4, 15] | Plant response rating, Wheat [5, 18]
30: Plant response rating, Nutsedge, Yellow [3, 13] | Plant response rating, Foxtail, Giant [6, 13] | Plant response rating, Johnsongrass [9, 18]
70: Plant response rating, Nutsedge, Yellow [3, 14] | Plant response rating, Nutsedge, Yellow [3, 18] | Plant response rating, Crabgrass, Large [11, 17] | Crabgrass, Large plant response rating [11, 19]
